Assay results as given in patent US11911383B2, “Oral solution formulation” (Pfizer Inc., priority 2018, dated 2024).
≈ marks a conversion by molar mass, not a printed value. Read-outs that look alike come from different tables or passages of the source.

How the values were obtained:
[1] = Effect of pH on the oral aqueous solution (degradation, precipitation); assay type: physicochemical; settings: pH values above about 4.3
Description: In some embodiments, the oral aqueous solution has a pH of from about 3.0 to about 4.5. In some embodiments, the oral aqueous solution has a pH of from about 3.5 to about 4.3. In frequent embodiments, the oral aqueous solution has a pH of from about 3.6 to about 4.0. In some such embodiments, the oral aqueous solution has a pH of about 3.8.

[2] = Solubility of palbociclib (free base) in various aqueous buffers, with total degradation by HPLC; assay type: physicochemical; settings: for solubility at 28 h: aqueous buffer solution, 25 °C, thermodynamic from solid
Method: The solubility of palbociclib (free base) was assessed in various aqueous buffer solutions and mixtures thereof. The buffers were prepared at concentrations ranging from 0.01 M to 0.2 M and at pH values ranging from 2.0 to 8.4. Samples were prepared by weighing and transferring approximately 200 mg of palbociclib to 3-4 mL of the buffer. The solutions were vortexed and placed in a temperature cycle chamber for 8 hours at 25° C., followed by 12 hours at 40° C., then 8 hours at 25° C. The resulting solutions were then analyzed by HPLC to determine the solubility (mg/mL) of palbociclib in the buffer. […] NT=Not tested.

[3] = Sample P: 0.032M Malic Acid, pH NT
[4] = Sample Q: 0.02M Malic Acid, pH NT
[5] = Sample R: 0.01M Malic Acid, pH NT
[6] = aqueous buffer systems of lactic acid and malic acid

Precipitation of the API [1]: Some precipitation
Total Degradation ([2]; Sample A: 0.2M Citric Acid, pH 2.02, new HPLC peaks greater than 0.05%): 0.52%
Total Degradation ([2]; Sample B: 0.2M Malic Acid, pH 2.00): 0.20%
Total Degradation ([2]; Sample C: 0.2M DL Lactic Acid, pH 2.07): 0%
Total Degradation ([2]; Sample D: 0.2M Succinic acid, pH 2.42): 0.66%
Total Degradation ([2]; Sample E: 0.2M Sodium succinate, pH 8.38): 0%
Total Degradation ([2]; Sample F: 0.2M Sodium dihydrogen phosphate dihydrate, pH 2.01): 1.27%
Total Degradation ([2]; Sample G: 9.5 mL D + 0.5 mL E, pH 3.15): 0.29%
Total Degradation ([2]; Sample H: 9 mL D + 1 mL E, pH 3.45): 3.03%
Total Degradation ([2]; Sample I: 8 mL D + 2 mL E, pH 3.93): 3.43%
Total Degradation ([2]; Sample J: 5 mL D + 5 mL E, pH 4.62): 1.31%
Total Degradation ([2]; Sample K: 5 mL D + 10 mL E, pH 4.98): 1.08%
Total Degradation ([2]; Sample L: 5 mL D + 15 mL E, pH 5.25): 1.46%
Total Degradation ([2]; Sample M: 0.1M DL Lactic Acid, pH 2.31): 0.00%
Total Degradation ([2]; Sample N: 0.05M DL Lactic Acid, pH 2.46): 0.00%
Total Degradation ([2]; Sample O: 0.01M DL Lactic Acid, pH 2.83): 0.19%
Solubility [2, 3]: 530 µg/mL (≈ 1.18 mM)
Total Degradation [2, 3]: 1.66%
Solubility [2, 4]: 600 µg/mL (≈ 1.34 mM)
Total Degradation [2, 4]: 1.62%
Solubility [2, 5]: 600 µg/mL (≈ 1.34 mM)
Total Degradation [2, 5]: 1.63%
solubility at 28 h ([2]; pH 2, aqueous buffer, Sample B: 0.2M Malic Acid, pH 2.00, read-out: Solubility): 15700 µg/mL (≈ 35.1 mM)
solubility at 28 h ([2]; pH 2.01, aqueous buffer, Sample F: 0.2M Sodium dihydrogen phosphate dihydrate, pH 2.01, read-out: Solubility): 650 µg/mL (≈ 1.45 mM)
solubility at 28 h ([2]; pH 2.02, aqueous buffer, Sample A: 0.2M Citric Acid, pH 2.02, temperature cycle 25/40/25° C., read-out: Solubility): 4000 µg/mL (≈ 8.94 mM)
solubility at 28 h ([2]; pH 2.07, aqueous buffer, 0.2M DL lactic acid buffer, read-out: Amount dissolved with solution still clear (saturated solubility not yet reached)): > 45700 µg/mL
solubility at 28 h ([2]; pH 2.07, aqueous buffer, Sample C: 0.2M DL Lactic Acid, pH 2.07, read-out: Solubility): 45700 µg/mL (≈ 102 mM)
solubility at 28 h ([2]; pH 2.31, aqueous buffer, Sample M: 0.1M DL Lactic Acid, pH 2.31, read-out: Solubility): 36300 µg/mL (≈ 81.1 mM)
solubility at 28 h ([2]; pH 2.42, aqueous buffer, Sample D: 0.2M Succinic acid, pH 2.42, read-out: Solubility): 1100 µg/mL (≈ 2.46 mM)
solubility at 28 h ([2]; pH 2.46, aqueous buffer, Sample N: 0.05M DL Lactic Acid, pH 2.46, read-out: Solubility): 16200 µg/mL (≈ 36.2 mM)
solubility at 28 h ([2]; pH 2.83, aqueous buffer, Sample O: 0.01M DL Lactic Acid, pH 2.83, read-out: Solubility): 3800 µg/mL (≈ 8.49 mM)
solubility at 28 h ([2]; pH 3.15, aqueous buffer, Sample G: 9.5 mL D + 0.5 mL E (succinic acid/sodium succinate), pH 3.15, read-out: Solubility): 1700 µg/mL
solubility at 28 h ([2]; pH 3.45, aqueous buffer, Sample H: 9 mL D + 1 mL E, pH 3.45, read-out: Solubility): 340 µg/mL
solubility at 28 h ([2]; pH 3.93, aqueous buffer, Sample I: 8 mL D + 2 mL E, pH 3.93, read-out: Solubility): 67 µg/mL
solubility at 28 h ([2]; pH 4.62, aqueous buffer, Sample J: 5 mL D + 5 mL E, pH 4.62, read-out: Solubility): 68 µg/mL
solubility at 28 h ([2]; pH 4.98, aqueous buffer, Sample K: 5 mL D + 10 mL E, pH 4.98, read-out: Solubility): 55 µg/mL
solubility at 28 h ([2]; pH 5.25, aqueous buffer, Sample L: 5 mL D + 15 mL E, pH 5.25, read-out: Solubility): 91 µg/mL
solubility at 28 h ([2]; pH 8.38, aqueous buffer, Sample E: 0.2M Sodium succinate, pH 8.38, read-out: Solubility): 4 µg/mL (≈ 0.00894 mM)
Degradation (in words) [2, 6]: minimal degradation
Solubility (in words) [2, 6]: significantly enhanced solubility
Structure (SMILES): CC(=O)c1c(C)c2cnc(Nc3ccc(N4CCNCC4)cn3)nc2n(C2CCCC2)c1=O [palbociclib, 6-acetyl-8-cyclopentyl-5-methyl-2-(5-piperazin-1-yl-pyridin-2-ylamino)-8H-pyrido[2,3-d]pyrimidin-7-one]
